Counter-ions that a name gives are not always drawn. Like-named read-outs stand apart in the source and are kept apart here.
Legend:
[1] = pKa determination by potentiometric titration; format: physicochemical; settings: for pKa: aqueous solution, experimental, potentiometric titration
Protocol: In addition, we tested the amino alcohol fragments of these compounds to carefully monitor the influence of individual protonated nitrogen atoms on the obtained pKa values (Figure 4). […] Based on a previously modified potentiometric procedure,[27],[28] a series of titrations were performed, and the pKa values were determined using the Kostrowicki and Liwo algorithm.[29],[30] […] That explains the surprising result of free base crystallization attempts where iodide salt was obtained instead of the neutral form. On the other hand, in the same environment, KSK94 exists in two forms: the monoprotonated form [HL^+] (20.56%) and the free ligand [L] (77.72%, Figure 5). […] KSK68 can be characterized as a basic ligand with pKa1 = 4.9 (pyridine N) and pKa2 = 8.4 (piperidine N). The pKa values are consistent with those determined by the same procedure for the corresponding amino alcohol 3-(4-(pyridin-4-yl)piperidin-1-yl)propan-1-ol (Figure 4). […] A similarly low pKa2 value for the N7 piperazine nitrogen atom was also determined for the corresponding amino alcohol 3-(4-(pyridin-4-yl)piperazin-1-yl)propan-1-ol (Figure 4), which is in agreement with the value obtained for 1-phenyl-4-methyl piperazine reported in the literature.[31] […] The lowest value was determined for 4-nitrophenyl, and the highest was for 2-methylphenyl derivatives.[32]
The potentiometric microtitration was performed in a thermostated 20 mL cell using a CerkoLab microtitration unit fitted with a pH electrode (Hydromet ERH-13-6). The electrode was calibrated with the use of buffer solutions: pH = 4.00, 7.00, and 10.00. Titrant T (0.1 M KOH) was standardized according to the general analytical procedure and protected from carbon dioxide. Double distilled water with a conductivity of about 0.18 mS/cm was used to prepare all aqueous solutions. DMSO (HPLC grade, 99.5%) was supplied by Sigma Aldrich. The concentration of the titrant solution (D) was 0.0025–0.005 M. The solubilization procedure was follows: The appropriate amount of KSK compound was dissolved in 1 mL 0.1 M HCl and 1 mL DMSO to prepare a 25 mL stock solution. The developed solubilization system can be recommended for poorly soluble derivatives. The analytical procedure was a follows: volume V0 = 4.5 mL of titrant D was titrated with 0.1 M titrant T using the CerkoLab System equipped with a 5 mL syringe pump.

[2] = target: T1, human recombinant histamine H3R (Homo sapiens, UniProt Q9Y5N1); test: hH3R radioligand binding ([3H]Nα-methylhistamine depletion assay); settings: read-out: hH3R Ki [nM] x̄ [CI 95%]; mean [CI 95%]; HEK-293 cells
T1 construct: expressed in transfected cells
T1 sequence (Q9Y5N1 whole entry): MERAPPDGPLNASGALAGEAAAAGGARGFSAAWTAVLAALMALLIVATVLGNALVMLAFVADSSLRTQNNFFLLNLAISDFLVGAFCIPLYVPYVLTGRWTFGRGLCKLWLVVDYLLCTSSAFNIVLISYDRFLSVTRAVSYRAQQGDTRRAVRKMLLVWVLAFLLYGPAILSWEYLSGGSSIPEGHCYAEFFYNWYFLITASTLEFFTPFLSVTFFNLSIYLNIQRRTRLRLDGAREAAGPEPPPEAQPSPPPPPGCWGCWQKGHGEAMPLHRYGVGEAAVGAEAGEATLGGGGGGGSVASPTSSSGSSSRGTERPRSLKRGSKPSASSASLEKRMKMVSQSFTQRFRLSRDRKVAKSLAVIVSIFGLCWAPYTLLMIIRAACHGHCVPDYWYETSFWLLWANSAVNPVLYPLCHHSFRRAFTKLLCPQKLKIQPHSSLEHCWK

sigma-1 receptor (σ1R) [3] = target: T2, sigma-1 receptor (σ1R) (Cavia porcellus, UniProt Q60492); test: σ1R radioligand binding ([3H](+)-pentazocine); set-up: species or system guinea pig; settings: read-out: σ1R Ki [nM] x̄ [CI 95%]; mean [CI 95%]
T2 construct: The thawed membrane preparation of the guinea pig brain cortex was incubated; from tissue; host or cells: male Dunkin-Hartley guinea pig brain cortex membranes
T2 sequence (Q60492 whole entry): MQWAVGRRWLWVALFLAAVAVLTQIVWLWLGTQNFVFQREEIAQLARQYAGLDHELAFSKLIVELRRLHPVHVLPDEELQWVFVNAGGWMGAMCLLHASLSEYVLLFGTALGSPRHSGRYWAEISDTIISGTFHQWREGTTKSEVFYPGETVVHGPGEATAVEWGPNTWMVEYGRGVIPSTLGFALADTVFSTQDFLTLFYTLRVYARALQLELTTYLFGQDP

sigma-1 receptor (σ1R) [4] = test: σ1R radioligand binding ([3H](+)-pentazocine); set-up: species or system guinea pig; settings: ratio of σ2R Ki to σ1R Ki
sigma-2 receptor (σ2R) = target: T3, sigma-2 receptor (σ2R) (Rattus norvegicus, UniProt Q5U3Y7); test: σ2R radioligand binding ([3H]DTG); settings: read-out: σ2R Ki [nM] x̄ [CI 95%]; mean [CI 95%]
T3 construct: The thawed membrane preparation of rat liver was incubated; from tissue; host or cells: Sprague-Dawley rat liver membranes
T3 sequence (Q5U3Y7 1-176): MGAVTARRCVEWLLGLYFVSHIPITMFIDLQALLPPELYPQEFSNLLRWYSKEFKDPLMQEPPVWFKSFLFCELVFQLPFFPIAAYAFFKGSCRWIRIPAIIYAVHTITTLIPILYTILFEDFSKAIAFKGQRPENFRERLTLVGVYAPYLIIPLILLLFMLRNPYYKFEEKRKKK

mice = test: loperamide-induced antinociception (paw pressure, struggle response latency); format: in vivo, Female CD1 mice; settings: for reversal of potentiation of loperamide-induced antinociception by S1RA and 12: PRE-084 75 μg i.pl., naloxone-methiodide 2 mg/kg s.c.
[5] = parallel artificial membrane permeability assay (PAMPA); format: in vitro ADME; settings: 100 μM in PBS pH 7.4, RT, read-out: Pe (permeability coefficient)
[6] = Figure 5, species distribution from titration curves
[7] = aqueous solution at physiological pH

Compound	Ki [2]	Ki (sigma-1 receptor (σ1R) [3])	σ2/σ1 ratio (sigma-1 receptor (σ1R) [4])	Ki (sigma-2 receptor (σ2R))	also measured
OCCCN1CCN(c2ccncc2)CC1 [3-(4-(pyridin-4-yl)piperazin-1-yl)propan-1-ol, reference compound]	–	–	–	–	pKa ([1]; read-out: pKa1): 6.1; pKa ([1]; read-out: pKa2): 1; pKa ([1]; read-out: pKa3): 8.82
OCCCN1CCC(c2ccncc2)CC1 [3-(4-(pyridin-4-yl)piperidin-1-yl)propan-1-ol, reference compound]	–	–	–	–	pKa ([1]; read-out: pKa1): 4.91; pKa ([1]; read-out: pKa2): 8.84
OCCCN1CCNCC1 [3-(piperazin-1-yl)propan-1-ol, reference compound]	–	–	–	–	pKa ([1]; read-out: pKa1): 4.52; pKa ([1]; read-out: pKa2): 9.14
OCCCN1CCCCC1 [3-(piperidin-1-yl)propan-1-ol, reference compound]	–	–	–	–	pKa ([1]; read-out: pKa): 9.73
CC1CCCN(CCCOc2ccc(-c3ccccc3)cc2)C1 (stereo not drawn) [Compound 1, 1-(3-([1,1′-Biphenyl]-4-yloxy)propyl)-3-methylpiperidine Oxalate]	31 nM	1.5 nM	11.3	17 nM	–
CC1CCN(CCCOc2ccc(-c3ccccc3)cc2)CC1 [Compound 2, 1-(3-([1,1′-Biphenyl]-4-yloxy)propyl)-4-methylpiperidine Oxalate]	10.3 nM	2.4 nM	6.7	16 nM	–
c1ccc(-c2ccc(OCCCN3CCCC3)cc2)cc1 [Compound 4, 1-(3-([1,1′-Biphenyl]-4-yloxy)propyl)pyrrolidine Oxalate]	19.5 nM	24 nM	2.7	65 nM	–
N#Cc1ccc(-c2ccc(OCCCN3CCCCC3)cc2)cc1.O=C(O)C(=O)O [Compound 5, 4′-(3-(Piperidin-1-yl)propoxy)-[1,1′-biphenyl]-4-carbonitrile Oxalate]	–	28 nM	1.7	47 nM	–
c1ccc(Oc2ccc(OCCCN3CCCCC3)cc2)cc1 [Compound 6, 1-(3-(4-Phenoxyphenoxy)propyl)piperidine Oxalate]	2.7 nM	18 nM	5.7	103 nM	–
c1ccc(Cc2ccc(OCCCN3CCCCC3)cc2)cc1 [Compound 8, 1-(3-(4-Benzylphenoxy)propyl)piperidine Oxalate]	–	5.5 nM	8.5	47 nM	–
c1ccc(-c2ccc(OCCCCN3CCCCC3)cc2)cc1 [Compound 9, 1-(4-([1,1′-Biphenyl]-4-yloxy)butyl)piperidine Oxalate]	22 nM	95 nM	0.3	33 nM	–
c1ccc(Oc2ccc(OCCCN3CCC(c4ccncc4)CC3)cc2)cc1 [Compound 13, 4-(1-(3-(4-Phenoxyphenoxy)propyl)piperidin-4-yl)pyridine Oxalate]	24.2 nM	5.6 nM	0.7	4 nM	–
c1ccc(Nc2ccc(OCCCN3CCC(c4ccncc4)CC3)cc2)cc1 [Compound 14, N-Phenyl-4-(3-(4-(pyridin-4-yl)piperidin-1-yl)propoxy)aniline Oxalate]	69 nM	3.3 nM	8.8	29 nM	–
c1ccc(Cc2ccc(OCCCN3CCC(c4ccncc4)CC3)cc2)cc1 [Compound 15, 4-(1-(3-(4-Benzylphenoxy)propyl)piperidin-4-yl)pyridine Oxalate]	76.1 nM	2.8 nM	3.5	9.9 nM	–
CC(C)(C)c1ccc(OCCCCN2CCN(c3cnccn3)CC2)cc1 [Compound 16, 2-(4-(4-(4-(tert-Butyl)phenoxy)butyl)piperazin-1-yl)pyrazine Oxalate]	–	7.6 nM	3.6	27 nM	–
N#Cc1ccc(-c2ccc(OCCCN3CCN(c4ccncc4)CC3)cc2)cc1 [KSK94]	–	–	–	–	pK of equilibrium H2L+2 = H+ + HL+ [1, 6]: 6.25; pK of equilibrium HL+ = H+ + L0 [1, 6]: 6.65; free ligand [L] [1, 7]: 77.72%; monoprotonated form [HL+] [1, 7]: 20.56%; pKa ([1]; read-out: pKa1): 6.25; pKa ([1]; read-out: pKa2): ~1; pKa ([1]; read-out: pKa3): 6.65
Cl.O=C(OCCN1CCOCC1)C1(c2ccccc2)CCCCC1 [PRE-084, 2-[4-morpholinethyl]1-phenylcyclohexanecarboxylate hydrochloride]	–	–	–	–	reversal of potentiation of loperamide-induced antinociception by S1RA and 12 (mice): markedly reverse the effect of these compounds on loperamide-induced antinociception
CN(C)C(=O)C(CCN1CCC(O)(c2ccc(Cl)cc2)CC1)(c1ccccc1)c1ccccc1 [loperamide]	–	–	–	–	effect of loperamide alone on struggle response latency (mice; 4 mg/kg s.c.): minimal (nonsignificant) increase in the struggle response latency
C=CC[N+]1(C)CC[C@]23c4c5ccc(O)c4O[C@H]2C(=O)CC[C@@]3(O)[C@H]1C5 (stereo partly drawn) [naloxone-methiodide]	–	–	–	–	reversal of potentiation of loperamide-induced antinociception by S1RA and 12 (mice): the effect of S1RA and 12 was also reversed
CCN1CCCC1CNC(=O)c1cc(S(N)(=O)=O)ccc1OC (stereo not drawn) [sulpiride, reference compound]	–	–	–	–	Papp at 5 h, 100 µM [5]: 0.05 ×10⁻⁶ cm/s

Source: PMC10388327, “Dual Piperidine-Based Histamine H3 and Sigma-1 Receptor Ligands in the Treatment of Nociceptive and Neuropathic Pain” (Journal of Medicinal Chemistry, 2023)
